Measured values reported in PMC10709440, “High-throughput ligand profile characterization in novel cell lines expressing seven heterologous insect olfactory receptors for the detection of volatile plant biomarkers” (Scientific Reports, 2023).
Read-outs that look alike come from different tables or passages of the source.

Assays:
Drosophila OR10a = target: T1, Drosophila OR10a (Drosophila melanogaster, UniProt Q9VYZ1); test: Calcium ion fluorescence (GCaMP6) assay, OR10a stable HEK293 cell line; format: cell-based; conditions: for DF norm AVERAGE OR10a: threshold 0.05, below shown as 0; for OR10a response (VUAA1-normalized) at 1 μM / OR10a response (VUAA1-normalized) at 10 μM / OR10a response (VUAA1-normalized) at 100 μM: OR10a cell line; for OR10a response (VUAA1-normalized) at 1 μM: VOC concentration 1 μM; for OR10a response (VUAA1-normalized) at 10 μM: VOC concentration 10 μM; for OR10a response (VUAA1-normalized) at 100 μM: VOC concentration 100 μM
T1 construct: expressed in transfected cells
T1 sequence (Q9VYZ1 1-406): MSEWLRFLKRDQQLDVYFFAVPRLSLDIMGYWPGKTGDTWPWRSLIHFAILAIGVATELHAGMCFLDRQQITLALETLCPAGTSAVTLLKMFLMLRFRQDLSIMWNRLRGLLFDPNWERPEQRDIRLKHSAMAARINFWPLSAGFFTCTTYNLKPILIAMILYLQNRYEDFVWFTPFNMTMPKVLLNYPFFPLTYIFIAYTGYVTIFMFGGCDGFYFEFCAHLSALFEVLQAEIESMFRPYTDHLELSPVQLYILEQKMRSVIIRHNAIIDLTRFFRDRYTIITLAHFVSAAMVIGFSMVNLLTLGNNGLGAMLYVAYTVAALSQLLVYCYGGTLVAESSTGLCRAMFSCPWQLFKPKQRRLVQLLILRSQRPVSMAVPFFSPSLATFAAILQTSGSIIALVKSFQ
T1 sequence (Q9VNB5 1-486 partner): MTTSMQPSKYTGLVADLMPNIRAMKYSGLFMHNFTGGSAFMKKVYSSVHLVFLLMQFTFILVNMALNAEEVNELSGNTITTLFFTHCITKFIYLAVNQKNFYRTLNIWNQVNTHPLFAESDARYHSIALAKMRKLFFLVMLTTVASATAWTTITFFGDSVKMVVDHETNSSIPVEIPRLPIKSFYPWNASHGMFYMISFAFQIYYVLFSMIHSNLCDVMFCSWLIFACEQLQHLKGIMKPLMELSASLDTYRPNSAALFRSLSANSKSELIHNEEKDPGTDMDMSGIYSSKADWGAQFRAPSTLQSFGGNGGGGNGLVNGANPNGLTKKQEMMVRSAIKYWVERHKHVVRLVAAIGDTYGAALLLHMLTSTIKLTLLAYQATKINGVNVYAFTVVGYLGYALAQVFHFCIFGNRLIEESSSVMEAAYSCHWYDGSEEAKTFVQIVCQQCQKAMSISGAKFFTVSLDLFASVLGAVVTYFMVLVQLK
Procedure, shortened: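 Responses are VUAA1-normalized ΔF: each VOC-evoked calcium signal, (FMAX−F0)/F0 over 30 s after injection, divided by the same line's mean 50 µM VUAA1 response. Cells were doxycycline-induced HEK293 with GCaMP6 and the cognate Drosophila OR, in HEPES buffer pH 7.3; ligands tested 0.01–100 μM.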

Drosophila OR85b = target: T2, Drosophila OR85b (Drosophila melanogaster, UniProt Q9VHQ7); test: Calcium ion fluorescence (GCaMP6) assay, OR85b stable HEK293 cell line; format: cell-based; conditions: for Average response / OR85b response (VUAA1-normalized) at 1 μM / OR85b response (VUAA1-normalized) at 10 μM / OR85b response (VUAA1-normalized) at 100 μM: OR85b cell line; for Average response: VUAA1-normalized response, mean of biological replicates; for OR85b response (VUAA1-normalized) at 1 μM: VOC concentration 1 μM; for OR85b response (VUAA1-normalized) at 10 μM: VOC concentration 10 μM; for OR85b response (VUAA1-normalized) at 100 μM: VOC concentration 100 μM
T2 construct: expressed in transfected cells
T2 sequence (Q9VHQ7 1-390): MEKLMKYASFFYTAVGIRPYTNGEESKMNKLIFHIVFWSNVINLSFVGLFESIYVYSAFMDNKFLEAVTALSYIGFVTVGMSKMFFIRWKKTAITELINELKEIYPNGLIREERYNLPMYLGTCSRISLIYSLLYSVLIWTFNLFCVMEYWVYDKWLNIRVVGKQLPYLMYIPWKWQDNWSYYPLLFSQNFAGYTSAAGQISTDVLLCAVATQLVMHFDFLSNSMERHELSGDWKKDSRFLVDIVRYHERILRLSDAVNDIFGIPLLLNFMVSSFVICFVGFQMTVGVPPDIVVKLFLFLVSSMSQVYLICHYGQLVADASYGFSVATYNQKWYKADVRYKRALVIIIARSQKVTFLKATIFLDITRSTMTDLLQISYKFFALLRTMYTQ
T2 sequence (Q9VNB5 1-486 partner): T1 sequence (Q9VNB5 1-486 partner)
Procedure: These VUAA1 normalized ∆F values were used to compare the different receptors and ligands.
The concentration-dependent effect of the reference ligands on their cognate cell lines was examined in more detail. Twelve different ligand concentrations were measured on each cell line in an overall 0.01 μM to 100 μM concentration range with 5 repetitions with three technical replicates each time.
Twelve thousand to 18,000 cells were plated into each well of a black wall, transparent bottom 384-well microplate (Greiner) 48 h or 72 h before the measurements and were simultaneously treated with 1 μg/mL doxycycline. […] The plate has 24 columns, thus we could record responses in up to eight different cell lines in each plate. On the day of the experiment, the growth medium was replaced with 20 µL assay buffer/well (140 mM NaCl, 5 mM KCl, 2 mM CaCl2, 1 mM MgCl2, 5 mM HEPES-Na, 20 mM glucose, pH 7.3, 340 mOsm). […] Baseline fluorescence (F0) was recorded for 5 s, after which 7 µL VOC buffer (140 mM NaCl, 5 mM KCl, 2 mM CaCl2, 1 mM MgCl2, 5 mM HEPES-Na, 31 mM glucose, 0.1% DMSO, pH 7.3, 340 mOsm) was injected into each well in one row and the fluorescence response was recorded for an additional 30 s, at a rate of one read/sec. VOC solutions (VOC buffer with 4× concentration of the final measured VOC concentration, 9 µL/well was injected) were measured on the same wells in a second round with the same protocol. Each individual concentration of a specific VOC sample was recorded in three wells for the same cell line on the same microplate. The raw data were exported in xls file format, F0 and FMAX values, and the fluorescence intensity changes (∆F) were calculated in Excel (Microsoft) (Supplementary file Data summary.xlsx) using the following equation: ΔF=FMAX-F0/F0 (see also Fig. 1C). On each plate, we recorded the response of each cell line to 50 µM VUAA1. The average of these ∆F values of each cell line were used to calculate the VUAA1-normalized values for the rest of the plate, by dividing VOC response ∆F values by the average VUAA1 response ∆F value of the corresponding OR cell line. Each VOC-OR combination was measured three times as technical replicates. […] The average of these replicates were used as one ∆F and VUAA1-normalized ∆F in the following analysis.
In the next rows we tested the reference VOCs (or other VOCs known to activate the corresponding cell lines), in order to test if all cell lines are responsive. The remaining rows were used to test VOCs with unknown effect.
The recorded FMAX, F0, ∆F, VUAA1-normalized ∆F values, as well as the OR name, the name of the tested sample, and the final concentration for each well were copied into supplementary file Data summary.xlsx, that was used to summarize all the plates recorded. Here, the averages of the measurements were calculated for each receptor-VOC-concentration combination.

[1] = HEK293, 1 μM VOC, 50 μM VUAA1 = 1, responses not exceeding 0.05 considered 0, read-out: OR10a Average response (VUAA1-normalized)
[2] = HEK293, 10 μM VOC, 50 μM VUAA1 = 1, responses not exceeding 0.05 considered 0, read-out: OR10a Average response (VUAA1-normalized)
[3] = HEK293, 100 μM VOC, 50 μM VUAA1 = 1, responses not exceeding 0.05 considered 0, read-out: OR10a Average response (VUAA1-normalized)
[4] = HEK293, read-out: OR10a response (VUAA1-normalized response), VOC concentration 1 μM
[5] = HEK293, read-out: OR10a response (VUAA1-normalized response), VOC concentration 10 μM
[6] = HEK293, read-out: OR10a response (VUAA1-normalized response), VOC concentration 100 μM
[7] = HEK293, read-out: OR85b Average response (VUAA1-normalized)
[8] = HEK293, read-out: OR85b response (VUAA1-normalized response)
[9] = ligand concentration 1 (unit not given)
[10] = ligand concentration 10 (unit not given)
[11] = ligand concentration 100 (unit not given)
[12] = ligand concentration 1 (unit not given), threshold 0.05, below shown as 0
[13] = ligand concentration 10 (unit not given), threshold 0.05, below shown as 0
[14] = ligand concentration 100 (unit not given), threshold 0.05, below shown as 0

| SMILES | activation at 1 µM (Drosophila OR10a; [1]) [%] | activation at 10 µM (Drosophila OR10a; [2]) [%] | activation at 100 µM (Drosophila OR10a; [3]) [%] | activation at 1 µM (Drosophila OR10a; [4]) [%] | activation at 10 µM (Drosophila OR10a; [5]) [%] | activation at 100 µM (Drosophila OR10a; [6]) [%] | activation at 1 µM (Drosophila OR85b; [7]) [%] | activation at 10 µM (Drosophila OR85b; [7]) [%] | activation at 100 µM (Drosophila OR85b; [7]) [%] | activation at 1 µM (Drosophila OR85b; [8]) [%] | activation at 10 µM (Drosophila OR85b; [8]) [%] | Average response (Drosophila OR85b; cc. 1 µM) | Average response (Drosophila OR85b; cc. 10 µM) | Average response (Drosophila OR85b; cc. 100 µM) | DF norm AVERAGE OR10a (Drosophila OR10a; [9]) | DF norm AVERAGE OR10a (Drosophila OR10a; [10]) | DF norm AVERAGE OR10a (Drosophila OR10a; [11]) | DF norm AVERAGE OR85b (Drosophila OR85b; [12]) | DF norm AVERAGE OR85b (Drosophila OR85b; [13]) | DF norm AVERAGE OR85b (Drosophila OR85b; [14]) | other results |
| --- | --- | --- | --- | --- | --- | --- | --- | --- | --- | --- | --- | --- | --- | --- | --- | --- | --- | --- | --- | --- | --- |
| CCCCCC(C)O (stereo not drawn) [2-heptanol] | 3.76 | 7.54 | 0 | 0 | 7.54 | 0 | 5 | 5 | 32 | 0 | 0 | 0.0455 | 0.05 | 0.32 |  |  |  |  |  |  | activation at 100 µM (Drosophila OR85b; [8]): 32%; DF norm AVERAGE OR85b (Drosophila OR85b; concentration 1, normalized fluorescence change, values below 0.05 threshold given as 0): 0; DF norm AVERAGE OR85b (Drosophila OR85b; concentration 10, normalized fluorescence change, values below 0.05 threshold given as 0): 0; DF norm AVERAGE OR85b (Drosophila OR85b; concentration 100, normalized fluorescence change, values below 0.05 threshold given as 0): 0.3169 |
| O=Cc1ccccc1 [benzaldehyde] | 0 | 4 | 17 | 0 | 0 | 17 |  |  |  | 6 | 0 | 0.06 | 0.00 | 0.00 | 0 | 0 | 0.1697 | 0.06124 | 0 | 0 | activation at 100 µM (Drosophila OR85b; [8]): 0% |
| CCCCCOC(C)=O [pentyl acetate] | 11 | 8 | 30 |  |  |  | 2 | 4 | 14 |  |  | 0.0185 | 0.04 | 0.14 | 0.109 | 0.07718 | 0.3011 | 0 | 0 | 0.1368 | OR10a response (VUAA1-normalized) at 1 μM (Drosophila OR10a): 0.11; OR10a response (VUAA1-normalized) at 10 μM (Drosophila OR10a): 0.08; OR10a response (VUAA1-normalized) at 100 μM (Drosophila OR10a): 0.30; OR85b response (VUAA1-normalized) at 1 μM (Drosophila OR85b): 0.00; OR85b response (VUAA1-normalized) at 10 μM (Drosophila OR85b): 0.00; OR85b response (VUAA1-normalized) at 100 μM (Drosophila OR85b): 0.14 |
| CCCOC(C)=O [propyl acetate] | 0 | 9 | 0 |  |  |  |  |  |  |  |  | 0.0538 | 0.0361 | 0.00 | 0 | 0.08914 | 0 | 0.05375 | 0 | 0 | OR10a response (VUAA1-normalized) at 1 μM (Drosophila OR10a): 0.00; OR10a response (VUAA1-normalized) at 10 μM (Drosophila OR10a): 0.09; OR10a response (VUAA1-normalized) at 100 μM (Drosophila OR10a): 0.00; OR85b response (VUAA1-normalized) at 1 μM (Drosophila OR85b): 0.0538; OR85b response (VUAA1-normalized) at 10 μM (Drosophila OR85b): 0.00; OR85b response (VUAA1-normalized) at 100 μM (Drosophila OR85b): 0.00 |
